According to the supplement of paper PMC10307832:

Columns and labels:
Assay in all cases: relative viability (nuclei count vs DMSO), 5 days (fraction); higher = more cells survive
AZ628 + Pemetrexed = compound: CC1=C(C=C(C=C1)NC(=O)C2=CC(=CC=C2)C(C)(C)C#N)NC3=CC4=C(C=C3)N=CN(C4=O)C [AZ628] + Nc1nc2[nH]cc(CCc3ccc(C(=O)N[C@@H](CCC(=O)O)C(=O)O)cc3)c2c(=O)[nH]1 [Pemetrexed] (partner 0.2 µM)
Summary of the method: (§1)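 Dosing by pin tool came one day after lung cancer cell lines were seeded in 1536-well plates, using either one drug or a fixed anchor-drug dose plus five library-drug doses (not always all listed) in √10 steps. After 5 days, nuclei were counted on 4× images. Relative viability is treated-well nuclei count divided by vehicle-well nuclei count, and values are medians of duplicate plates.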

[1] = compound: C[As](C)SC[C@H](NC(=O)CC[C@H](N)C(=O)O)C(=O)NCC(=O)O [Darinaparsin] + Nc1nc2[nH]cc(CCc3ccc(C(=O)N[C@@H](CCC(=O)O)C(=O)O)cc3)c2c(=O)[nH]1 [Pemetrexed] (partner 0.2 µM)
Summary of the method: as §1

Darinaparsin + Dasatinib = compound: C[As](C)SC[C@H](NC(=O)CC[C@H](N)C(=O)O)C(=O)NCC(=O)O [Darinaparsin] + Cc1nc(Nc2ncc(C(=O)Nc3c(C)cccc3Cl)s2)cc(N2CCN(CCO)CC2)n1 [Dasatinib] (partner 0.075 µM)
Summary of the method: as §1

QS11 + Tozasertib = compound: C1CC2=C(C1)C=C(C=C2)OC3=NC(=C4C(=N3)N(C=N4)CC5=CC=C(C=C5)C6=CC=CC=C6)N[C@@H](CC7=CC=CC=C7)CO [QS11] + Cc1cc(Nc2cc(N3CCN(C)CC3)nc(Sc3ccc(NC(=O)C4CC4)cc3)n2)n[nH]1 [Tozasertib] (partner 0.1 µM)
Summary of the method: as §1

EKVX
relative viability (AZ628 + Pemetrexed; first compound 0.08 µM): 0.419
relative viability (AZ628 + Pemetrexed; first compound 0.253 µM): 0.422
relative viability (AZ628 + Pemetrexed; first compound 0.8 µM): 0.338
relative viability (AZ628 + Pemetrexed; first compound 2.53 µM): 0.407
relative viability (AZ628 + Pemetrexed; first compound 8 µM): 0.312
relative viability ([1]; first compound 0.08 µM): 0.458
relative viability ([1]; first compound 0.8 µM): 0.385
relative viability ([1]; first compound 2.53 µM): 0.388
relative viability ([1]; first compound 8 µM): 0.412
relative viability (Darinaparsin + Dasatinib; first compound 0.08 µM): 0.504
relative viability (Darinaparsin + Dasatinib; first compound 0.8 µM): 0.488
relative viability (Darinaparsin + Dasatinib; first compound 2.53 µM): 0.53
relative viability (Darinaparsin + Dasatinib; first compound 8 µM): 0.512
relative viability (QS11 + Tozasertib; first compound 0.08 µM): 0.369
relative viability (QS11 + Tozasertib; first compound 0.253 µM): 0.367
relative viability (QS11 + Tozasertib; first compound 2.53 µM): 0.302
relative viability (QS11 + Tozasertib; first compound 8 µM): 0.457
